# Results published in patent publication US20230332232A1, “COMPOSITIONS AND METHODS FOR DIAGNOSING AND TREATING A DYSTONIA” (Duke University, priority 2020, published 2023).
# Tested on: DYT1 knockin (Tor1a^delGAG/+) murine embryonic fibroblasts (MEFs)
# Assay: microRNA-seq of EVs from DYT1 MEFs treated with drug, compared with non-treated DYT1 MEFs
# Type: cell-based, mouse
# Settings: for Abs Z Score Sum (Geno + RTV) / RTV Direction Opposite dE?: EVs of DYT1 (Het) MEFs
# Protocol: In addition to proteomic analysis, total RNA-seq and microRNA-seq was performed on RNA isolated in parallel from the EV samples of Cohort 2. As with the proteomic analysis, one biological replicate was prepared from 3 distinct biological clonal cell lines for each genotype. Here, EVs were isolated from conditioned cell culture media by 18 hour ultracentrifugation at 100,000 g. RNA was extracted using the Qiagen miRNeasy Micro Kit (Cat. No. 217084) according to the manufacturer's protocol. Two RNA fractions were extracted from each sample, one enriched in coding and non-coding RNA species>200 nt (“Total RNA” fraction) and one enriched for small RNAs<200 nt (“miRNA” fraction). RNA samples were then submitted to the Duke Sequencing and Genomic Technologies shared resource for further quality control and sequencing. Samples were assessed for concentration and integrity by Qubit and Fragment Analyzer. The miRNA fractions were 4.16 ng/μL-47.57 ng/μL and total RNA fractions were 3.8 ng/μL-43.6 ng/μL. The small RNA library was prepared using the QIAseq miRNA Library Kit (Cat No./ID: 331505) and sequenced on the Illumina NextSeq 500 High-Output platform with 75 bp single-reads. The total RNA library was prepared using the Illumina TruSeq Stranded Total RNA-seq Kit with Ribozero Gold ribosomal RNA reduction and sequenced on the Illumina NovaSeq 6000 S1 platform with 100 bp paired-end reads. Sequencer lane pooling and read depth are attached in the Excel data summary (See “RNA QC” Tab). Data processing and analysis were performed in collaboration with the Duke Genomic Analysis and Bioinformatics shared resource. RNA-seq data was processed using the TrimGalore toolkit (http://www.bioinformatics.babraham.ac.uk/projects/trim_galore), which employs Cutadapt(Martin M. (2011) EMBnet.journal. 17(1):10-12) to trim low quality bases and Illumina sequencing adapters from the 3' end of the reads. Only reads that were 20 nt or longer after trimming were kept for further analysis. Reads were mapped to the mouse genome and transcriptome ([…], et al. (2012) Nucleic Acids Res. 40(Database issue):[…]-97) using the STAR RNA-seq alignment tool (Dobin A, et al. (2013). Bioinformatics. 29(1):15-21). If the reads mapped to a single genomic location, then they were kept for subsequent analysis. Gene counts were compiled using the HTSeq tool (http://www-huber.embl.de/users/anders/HTSeq/). Only genes that had at least 10 reads in any given library were used in subsequent analysis. Normalization and differential expression was carried out using the DESeq26 Bioconductor (Huber W, et al. (2015) Nat Methods. 12(2):115-121) package with the R statistical programming environment (www.r-project.org). […] 694 miRNAs were initially examined with respect to QC, genotype, RTV effects, and ISRIB effects. This subset was the “Full miRNA” subset. FIG. 9A and FIG. 9B show the RTV effect on EV composition in DYT1 cells compared to WT cells for 279 miRNAs, respectively. […] Beginning with the 694 miRNAs in the “Full miRNA” subset, more than 60 molecules were detected in either WT cells or DYT1 cells (WT or Het UMI>60). […] The candidate miRNAs were ranked by the sum of genotype-dependent absolute Z-scores and RTV-induced absolute Z-scores (Abs Z Score Sum (Geno+RTV)). This subset was the “miRNA-Ritonavir Therapeutic Efficacy” subset and contained 201 miRNAs.
# [1] = sum of genotype and RTV absolute Z-scores
structure (smiles),measurement,setting,value
"CC(C)c1nc(CN(C)C(=O)N[C@H](C(=O)N[C@@H](Cc2ccccc2)C[C@H](O)[C@H](Cc2ccccc2)NC(=O)OCc2cncs2)C(C)C)cs1 [RTV, Ritonavir]",RTVvHet Z Score,mmu-miR-183-5p,3.42
same,Abs Z Score Sum (Geno + RTV),mmu-miR-183-5p,5.55
same,RTV Direction Opposite dE?,mmu-miR-183-5p,yes
same,RTVvHet Z Score,mmu-miR-185-5p,0.53
same,RTVvHet Z Score,mmu-miR-186-5p,0.33
same,RTVvHet Z Score,mmu-miR-187-3p,1.13
same,Abs Z Score Sum (Geno + RTV),mmu-miR-187-3p,3.96
same,RTV Direction Opposite dE?,mmu-miR-187-3p,yes
same,RTVvHet Z Score,mmu-miR-188-5p,0.34
same,RTVvHet Z Score,mmu-miR-190b-5p,0.28
same,RTVvHet Z Score,mmu-miR-191-5p,0.28
same,RTVvHet Z Score,mmu-miR-192-5p,0.54
same,Abs Z Score Sum (Geno + RTV),mmu-miR-192-5p,3.38
same,RTV Direction Opposite dE?,mmu-miR-192-5p,yes
same,RTVvHet Z Score,mmu-miR-194-5p,0.46
same,RTVvHet Z Score,mmu-miR-199a-3p,1.07
same,RTV Direction Opposite dE?,mmu-miR-199a-3p,yes
same,RTVvHet Z Score,mmu-miR-199b-3p,1.17
same,RTV Direction Opposite dE?,mmu-miR-199b-3p,yes
same,RTVvHet Z Score,mmu-miR-206-3p,0.20
same,RTVvHet Z Score,mmu-miR-214-5p,1.09
same,RTVvHet Z Score,mmu-miR-219a-5p,1.08
same,RTVvHet Z Score,mmu-miR-223-3p,−0.59
same,RTVvHet Z Score,mmu-miR-224-5p,0.28
same,RTVvHet Z Score,mmu-miR-296-3p,3.08
same,Abs Z Score Sum (Geno + RTV),mmu-miR-296-3p,5.10
same,RTV Direction Opposite dE?,mmu-miR-296-3p,yes
same,RTVvHet Z Score,mmu-miR-298-5p,3.59
same,Abs Z Score Sum (Geno + RTV),mmu-miR-298-5p,6.72
same,RTV Direction Opposite dE?,mmu-miR-298-5p,yes
same,RTVvHet Z Score,mmu-miR-299a-3p,1.31
same,RTVvHet Z Score,mmu-miR-301a-3p,1.45
same,RTVvHet Z Score,mmu-miR-301b-3p,1.05
same,RTVvHet Z Score,mmu-miR-320-3p,0.76
same,RTVvHet Z Score,mmu-miR-322-5p,0.75
same,RTVvHet Z Score,mmu-miR-324-3p,0.82
same,RTVvHet Z Score,mmu-miR-335-Sp,1.02
same,RTVvHet Z Score,mmu-miR-340-5p,1.09
same,RTVvHet Z Score,mmu-miR-344-3p,1.30
same,Abs Z Score Sum (Geno + RTV),mmu-miR-344-3p,4.24
same,RTV Direction Opposite dE?,mmu-miR-344-3p,yes
same,RTVvHet Z Score,mmu-miR-350-3p,0.41
same,RTVvHet Z Score,mmu-miR-361-5p,0.71
same,RTVvHet Z Score,mmu-miR-362-3p,1.05
same,RTV Direction Opposite dE?,mmu-miR-362-3p,yes
same,RTVvHet Z Score,mmu-miR-362-5p,0.83
same,Abs Z Score Sum (Geno + RTV),mmu-miR-362-5p,3.62
same,RTV Direction Opposite dE?,mmu-miR-362-5p,yes
same,RTVvHet Z Score,mmu-miR-378a-3p,1.25
same,RTVvHet Z Score,mmu-miR-450a-5p,0.39
same,RTVvHet Z Score,mmu-miR-450b-3p,0.31
same,RTVvHet Z Score,mmu-miR-451a,−1.37
same,RTVvHet Z Score,mmu-miR-483-5p,0.01
same,RTVvHet Z Score,mmu-miR-500-3p,1.09
same,RTVvHet Z Score,mmu-miR-503-3p,0.99
same,RTVvHet Z Score,mmu-miR-532-5p,0.52
same,Abs Z Score Sum (Geno + RTV),mmu-miR-532-5p,3.77
same,RTV Direction Opposite dE?,mmu-miR-532-5p,yes
same,RTVvHet Z Score,mmu-miR-542-3p,0.81
same,RTVvHet Z Score,mmu-miR-542-5p,2.00
same,Abs Z Score Sum (Geno + RTV),mmu-miR-542-5p,7.20
same,RTV Direction Opposite dE?,mmu-miR-542-5p,yes
same,RTVvHet Z Score,mmu-miR-582-3p,0.20
same,RTVvHet Z Score,mmu-miR-652-3p,0.93
same,RTVvHet Z Score,mmu-miR-671-5p,1.76
same,RTV Direction Opposite dE?,mmu-miR-671-5p,yes
same,RTVvHet Z Score,mmu-miR-700-3p,0.49
same,RTVvHet Z Score,mmu-miR-708-5p,1.28
same,RTVvHet Z Score,mmu-miR-872-5p,0.68
same,RTVvHet Z Score,mmu-miR-1291,1.91
same,Abs Z Score Sum (Geno + RTV),mmu-miR-1291,3.34
same,RTV Direction Opposite dE?,mmu-miR-1291,yes
same,RTVvHet Z Score,mmu-miR-1843a-5p,0.28
same,RTVvHet Z Score,mmu-miR-3102-3p,0.95
same,RTVvHet Z Score,mmu-miR-3535,1.43
same,Abs Z Score Sum (Geno + RTV),mmu-miR-3535,3.67
same,RTV Direction Opposite dE?,mmu-miR-3535,yes
same,RTVvHet Z Score,mmu-miR-5121,2.65
same,Abs Z Score Sum (Geno + RTV),mmu-miR-5121,4.47
same,RTV Direction Opposite dE?,mmu-miR-5121,yes
same,Abs Z Score Sum (Geno + RTV),mmu-miR-30h-5p,3.25
same,RTV Direction Opposite dE?,mmu-miR-30h-5p,yes
same,RTVvHet Z Score,mmu-miR-30d-5p,0.70
same,RTVvHet Z Score,mmu-miR-344d-3p,1.98
same,Abs Z Score Sum (Geno + RTV),mmu-miR-344d-3p,4.51
same,RTV Direction Opposite dE?,mmu-miR-344d-3p,yes
same,mmu-miR-147-5p: Abs Z Score Sum (Geno + RTV),[1],0.20
same,mmu-miR-181a-1-3p: Abs Z Score Sum (Geno + RTV),[1],0.18
same,mmu-miR-331-5p: Abs Z Score Sum (Geno + RTV),[1],0.00
same,mmu-miR-668-3p: Abs Z Score Sum (Geno + RTV),[1],0.42
same,mmu-miR-1930-5p: Abs Z Score Sum (Geno + RTV),[1],0.38
same,mmu-miR-1943-5p: Abs Z Score Sum (Geno + RTV),[1],0.23
same,mmu-miR-1955-5p: Abs Z Score Sum (Geno + RTV),[1],0.00
same,mmu-miR-3072-5p: Abs Z Score Sum (Geno + RTV),[1],0.38
same,mmu-miR-3076-3p: Abs Z Score Sum (Geno + RTV),[1],0.00
same,mmu-miR-3088-3p: Abs Z Score Sum (Geno + RTV),[1],0.18
same,mmu-miR-6936-3p: Abs Z Score Sum (Geno + RTV),[1],0.38
same,mmu-miR-7224-3p: Abs Z Score Sum (Geno + RTV),[1],0.22
same,mmu-miR-467d-3p: Abs Z Score Sum (Geno + RTV),[1],0.32
